According to patent publication US20140023611A1 (priority 2010, published 2014):

The compounds below were run against T1, rat NaP2b (SLC34A2) (Rattus norvegicus, UniProt Q9JJ09) (assay: Inhibition of NaP2b-mediated Pi (33P) uptake in transfected HEK293 cells, rat NaP2b). Settings: 33P Pi uptake, 0.1 mM phosphate, value given as pIC50 range.
T1 construct: host or cells: HEK293
T1 sequence (Q9JJ09 1-695): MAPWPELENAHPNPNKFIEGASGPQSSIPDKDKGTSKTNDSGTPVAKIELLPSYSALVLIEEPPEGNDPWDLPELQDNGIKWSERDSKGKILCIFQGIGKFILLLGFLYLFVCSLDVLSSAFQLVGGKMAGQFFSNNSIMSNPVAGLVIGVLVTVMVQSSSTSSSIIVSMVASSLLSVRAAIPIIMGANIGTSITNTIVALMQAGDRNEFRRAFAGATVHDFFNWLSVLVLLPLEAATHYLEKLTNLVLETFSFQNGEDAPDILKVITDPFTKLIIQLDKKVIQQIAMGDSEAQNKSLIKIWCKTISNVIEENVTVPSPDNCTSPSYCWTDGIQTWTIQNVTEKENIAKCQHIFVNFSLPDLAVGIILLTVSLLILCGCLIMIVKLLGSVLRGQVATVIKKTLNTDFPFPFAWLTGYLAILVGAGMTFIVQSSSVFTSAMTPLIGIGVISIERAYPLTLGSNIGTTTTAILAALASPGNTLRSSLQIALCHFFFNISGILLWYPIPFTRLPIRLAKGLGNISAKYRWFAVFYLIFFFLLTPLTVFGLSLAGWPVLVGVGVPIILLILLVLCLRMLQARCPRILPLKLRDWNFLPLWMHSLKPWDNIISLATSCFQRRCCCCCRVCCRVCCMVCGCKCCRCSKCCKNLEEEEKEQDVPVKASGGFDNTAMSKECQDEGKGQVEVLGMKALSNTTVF
Type: cell-based
Summary of the method: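 The cells transiently expressed NaP2b after Lipofectamine transfection. Each compound was run in duplicate over twelve concentrations, 0.1 nM–30 uM.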

How did the IC50 turn out when `CN(CCN1CCOCC1)C(=O)c1cccc(C(=O)Nc2ccc(N3CCCCC3)cc2-c2cc(C(=O)NCc3ccccc3OC(F)(F)F)ccn2)c1` [Example 123, N1-(2-(4-((2-(trifluoromethoxy)benzyl)carbamoyl)pyridin-2-yl)-4-(piperidin-1-yl)phenyl)-N3-methyl-N3-(2-morpholinoethyl)isophthalamide] was run?
The IC50 was 1 to 7.94 µM.

`COc1ccccc1CNC(=O)c1ccnc(-c2cc(N3CCCCC3)ccc2NC(=O)c2cccc(C(=O)N(C)CCN3CCOCC3)c2)c1` [Example 124, N1-(2-(4-((2-methoxybenzyl)carbamoyl)pyridin-2-yl)-4-(piperidin-1-yl)phenyl)-N3-methyl-N3-(2-morpholinoethyl)isophthalamide] was tested. Which IC50 did it give?
The IC50 was 1 to 7.94 µM.

With `COc1ccc(C(F)(F)F)cc1CNC(=O)c1ccnc(-c2cc(N3CCCCC3)ccc2NC(=O)c2cccc(C(=O)N(C)CCN3CCOCC3)c2)c1` [Example 125, N1-(2-(4-((2-methoxy-5-(trifluoromethyl)benzyl)carbamoyl)pyridin-2-yl)-4-(piperidin-1-yl)phenyl)-N3-methyl-N3-(2-morpholinoethyl)isophthalamide] as the compound, how does the IC50 read?
Its IC50 is 1 to 7.94 µM.

How did the IC50 turn out when `CCCCN(C)c1ccc(NC(=O)c2cccc(C(=O)N(C)CCN3CCOCC3)c2)c(-c2cc(C(=O)NCc3cccc(C(F)(F)F)c3)ccn2)c1` [Example 127, N1-(4-(butyl(methyl)amino)-2-(4-(3-(trifluoromethyl)benzylcarbamoyl)pyridin-2-yl)phenyl)-N3-methyl-N3-(2-morpholinoethyl)isophthalamide] was run?
The IC50 was 10 to 31.6 µM.

`CCCN(CC)c1ccc(NC(=O)c2cccc(C(=O)N(C)CCN3CCOCC3)c2)c(-c2cc(C(=O)NCc3cccc(C(F)(F)F)c3)ccn2)c1` [Example 128, N1-(2-(4-((3-(trifluoromethyl)benzyl)carbamoyl)pyridin-2-yl)-4-(ethyl(propyl)amino)phenyl)-N3-methyl-N3-(2-morpholinoethyl)isophthalamide] was tested. Which IC50 did it give?
The IC50 was 1 to 7.94 µM.

With `CCCN(C)c1ccc(NC(=O)c2cccc(C(=O)N(C)CCN3CCOCC3)c2)c(-c2cc(C(=O)NCc3cccc(C(F)(F)F)c3)ccn2)c1` [Example 129, N^1-methyl-N^3-(4-(methyl(propyl)amino)-2-(4-((3-(trifluoromethyl)benzyl)carbamoyl)pyridin-2-yl)phenyl)-N-(2-morpholinoethyl)isophthalamide] as the compound, how does the IC50 read?
Its IC50 is 1 to 7.94 µM.

`CN(CCN1CCOCC1)C(=O)c1cccc(C(=O)Nc2ccc(C(F)(F)F)cc2-c2cc(C(=O)N[C@H]3CCCc4ccccc43)ccn2)c1` [Example 130, (S)—N1-methyl-N1-(2-morpholinoethyl)-N3-(2-(4-(1,2,3,4-tetrahydronaphthalen-1-ylcarbamoyl)pyridin-2-yl)-4-(trifluoromethyl)phenyl)isophthalamide] was tested. Which IC50 did it give?
Its IC50 is 1 to 7.94 µM.

Which IC50 does the source give for `CN(CCN1CCOCC1)C(=O)c1cccc(C(=O)Nc2ccc(OC3CCCC3)cc2-c2cc(C(=O)N[C@H]3CCCc4ccccc43)ccn2)c1` [Example 133, (S)—N^1-(4-(cyclopentyloxy)-2-(4-((1,2,3,4-tetrahydronaphthalen-1-yl)carbamoyl)pyridin-2-yl)phenyl)-N^3-methyl-N^3-(2-morpholinoethyl)isophthalamide] here?
Its IC50 is 1 to 7.94 µM.

How did the IC50 turn out when `O=C(O)COc1cccc(SCc2cccc(C(=O)Nc3ccc(N4CCCCC4)cc3-c3cc(C(=O)NCc4cccc(C(F)(F)F)c4)ccn3)c2)c1` [Example 134, 2-(3-(3-(4-(piperidin-1-yl)-2-(4-(3-(trifluoromethyl)benzylcarbamoyl)pyridin-2-yl)phenylcarbamoyl)benzylthio)phenoxy)acetic acid] was run?
Its IC50 is 1 to 7.94 µM.

Which IC50 does the source give for `CN(CCOCCOCCOCCC(=O)O)C(=O)c1cccc(SCc2cccc(C(=O)Nc3ccc(N4CCCCC4)cc3-c3cc(C(=O)NCc4cccc(C(F)(F)F)c4)ccn3)c2)c1` [Example 135, 3-(2-(2-(2-(N-methyl-3-(3-(4-(piperidin-1-yl)-2-(4-(3-(trifluoromethyl)benzylcarbamoyl)pyridin-2-yl)phenylcarbamoyl)benzylthio)benzamido)ethoxy)ethoxy)ethoxy)propanoic acid] here?
Its IC50 is 1 to 7.94 µM.

`CN(CCN1CCOCC1)C(=O)Cc1cccc(SCc2cccc(C(=O)Nc3ccc(N4CCCCC4)cc3-c3cc(C(=O)NCc4cccc(C(F)(F)F)c4)ccn3)c2)c1` [Example 136, 2-(2-(3-((3-(2-(methyl(2-morpholinoethyl)amino)-2-oxoethyl)phenylthio)methyl)benzamido)-5-(piperidin-1-yl)phenyl)-N-(3-(trifluoromethyl)benzyl)isonicotinamide] was tested. Which IC50 did it give?
The IC50 was 1 to 7.94 µM.

For `O=C(O)CNC(=O)Cc1cccc(SCc2cccc(C(=O)Nc3ccc(N4CCCCC4)cc3-c3cc(C(=O)NCc4cccc(C(F)(F)F)c4)ccn3)c2)c1` [Example 139], which IC50 is on record?
Its IC50 is 10 to 31.6 µM.

How did the IC50 turn out when `O=C(O)CCNC(=O)Cc1cccc(SCc2cccc(C(=O)Nc3ccc(N4CCCCC4)cc3-c3cc(C(=O)NCc4cccc(C(F)(F)F)c4)ccn3)c2)c1` [Example 140] was run?
Its IC50 is 1 to 7.94 µM.

With `O=C(O)CN(CCOCCO)C(=O)CCOCCOCCOCCOCCSCc1cccc(C(=O)Nc2ccc(N3CCCCC3)cc2-c2cc(C(=O)NCc3cccc(C(F)(F)F)c3)ccn2)c1` [Example 145, 18-(2-(2-hydroxyethoxy)ethyl)-17-oxo-1-(3-(4-(piperidin-1-yl)-2-(4-(3-(trifluoromethyl)benzylcarbamoyl)pyridin-2-yl)phenylcarbamoyl)phenyl)-5,8,11,14-tetraoxa-2-thia-18-azaicosan-20-oic acid] as the compound, how does the IC50 read?
The IC50 was 10 to 31.6 µM.

With `CC(=O)N1CCCN(C(=O)CCOCCOCCOCCOCCSCc2cccc(C(=O)Nc3ccc(N4CCCCC4)cc3-c3cc(C(=O)NCc4cccc(C(F)(F)F)c4)ccn3)c2)CC1` [Example 153, 2-(2-(3-(17-(4-acetyl-1,4-diazepan-1-yl)-17-oxo-5,8,11,14-tetraoxa-2-thiaheptadecyl)benzamido)-5-(piperidin-1-yl)phenyl)-N-(3-(trifluoromethyl)benzyl)isonicotinamide] as the compound, how does the IC50 read?
Its IC50 is 10 to 31.6 µM.

With `O=C(NCc1cccc(C(F)(F)F)c1)c1ccnc(-c2cc(N3CCCCC3)ccc2NC(=O)c2cccc(CSCCOCCOCCOCCOCCC(=O)N3CCC(N4CCOCC4)CC3)c2)c1` [Example 154, 2-(2-(3-(17-(4-morpholinopiperidin-1-yl)-17-oxo-5,8,11,14-tetraoxa-2-thiaheptadecyl)benzamido)-5-(piperidin-1-yl)phenyl)-N-(3-(trifluoromethyl)benzyl)isonicotinamide] as the compound, how does the IC50 read?
Its IC50 is 10 to 31.6 µM.

For `O=C(O)CCOCCOCCOCCNC(=O)CCOCCOCCOCCOCCSCc1cccc(C(=O)Nc2ccc(N3CCCCC3)cc2-c2cc(C(=O)NCc3cccc(C(F)(F)F)c3)ccn2)c1` [Example 155, 17-oxo-1-(3-(4-(piperidin-1-yl)-2-(4-(3-(trifluoromethyl)benzylcarbamoyl)pyridin-2-yl)phenylcarbamoyl)phenyl)-5,8,11,14,21,24,27-heptaoxa-2-thia-18-azatriacontan-30-oic acid], which IC50 is on record?
Its IC50 is 10 to 31.6 µM.

Which IC50 does the source give for `O=C(NCc1cccc(C(F)(F)F)c1)c1ccnc(-c2cc(N3CCCCC3)ccc2NC(=O)c2cccc(Cn3ccc4c(C(=O)NCCOCCOCCO)cccc43)c2)c1` [Example 180, N-(2-(2-(2-hydroxyethoxy)ethoxy)ethyl)-1-(3-(4-(piperidin-1-yl)-2-(4-(3-(trifluoromethyl)benzylcarbamoyl)pyridin-2-yl)phenylcarbamoyl)benzyl)-1H-indole-4-carboxamide] here?
Its IC50 is 1 to 7.94 µM.

`O=C(O)c1cccc(Cn2ccnc2-c2cccc(C(=O)Nc3ccc(N4CCCCC4)cc3-c3cc(C(=O)NCc4cccc(C(F)(F)F)c4)ccn3)c2)c1` [Example 184, 3-((2-(3-(4-(piperidin-1-yl)-2-(4-(3-(trifluoromethyl)benzylcarbamoyl)pyridin-2-yl)phenylcarbamoyl)phenyl)-1H-imidazol-1-yl)methyl)benzoic acid] was tested. Which IC50 did it give?
Its IC50 is 1 to 7.94 µM.

For `O=C(O)c1cccc(CSc2cccc(C(=O)Nc3ccc(N4CCCCC4)cc3-c3cc(C(=O)NCc4cccc(C(F)(F)F)c4)ccn3)c2)c1` [Example 186, 3-((3-(4-(piperidin-1-yl)-2-(4-(3-(trifluoromethyl)benzylcarbamoyl)pyridin-2-yl)phenylcarbamoyl)phenylthio)methyl)benzoic acid], which IC50 is on record?
The IC50 was 1 to 7.94 µM.

`CCN(CC)c1ccc(NC(=O)c2cccc(C(=O)N3CCC[C@H](C(=O)NCCOC)C3)c2)c(-c2cc(C(=O)NCc3cccc(C(F)(F)F)c3)ccn2)c1` [Example 189, (S)-2-(5-(diethylamino)-2-(3-(3-((2-methoxyethyl)carbamoyl)piperidine-1-carbonyl)benzamido)phenyl)-N-(3-(trifluoromethyl)benzyl)isonicotinamide] was tested. Which IC50 did it give?
The IC50 was 1 to 7.94 µM.

For `CN(CCN1CCC[C@H]1C(=O)N(C)CCOCCOCCOCCC(=O)OC(C)(C)C)C(=O)c1cccc(C(=O)Nc2ccc(N3CCCCC3)cc2-c2cc(C(=O)N[C@H]3CCCc4ccccc43)ccn2)c1` [Example 190, tert-Butyl 2-methyl-1-((S)-1-(2-(N-methyl-3-((4-(piperidin-1-yl)-2-(4-(((S)-1,2,3,4-tetrahydronaphthalen-1-yl)carbamoyl)pyridin-2-yl)phenyl)carbamoyl)benzamido)ethyl)pyrrolidin-2-yl)-1-oxo-5,8,11-trioxa-2-azatetradecan-14-oate], which IC50 is on record?
The IC50 was 1 to 7.94 µM.
